The target of this assay is T1, α2C receptor (Homo sapiens, UniProt P18825).
T1 sequence (P18825 1-462): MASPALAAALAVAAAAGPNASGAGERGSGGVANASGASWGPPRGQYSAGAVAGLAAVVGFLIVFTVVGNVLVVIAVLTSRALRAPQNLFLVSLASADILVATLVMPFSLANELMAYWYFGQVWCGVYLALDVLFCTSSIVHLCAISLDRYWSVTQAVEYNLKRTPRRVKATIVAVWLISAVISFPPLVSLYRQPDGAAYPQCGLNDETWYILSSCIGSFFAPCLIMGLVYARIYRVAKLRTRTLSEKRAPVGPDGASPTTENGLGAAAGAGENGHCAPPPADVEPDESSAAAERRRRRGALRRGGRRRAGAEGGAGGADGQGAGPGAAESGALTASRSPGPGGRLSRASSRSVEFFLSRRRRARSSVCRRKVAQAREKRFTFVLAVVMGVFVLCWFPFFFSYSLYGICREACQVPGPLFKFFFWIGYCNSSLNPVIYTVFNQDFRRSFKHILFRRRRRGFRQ
Briefly: binding inhibition (Ki) at the α2C receptor. To be noted: compounds classed as α2C antagonists; read-out: Ki at the α2C receptor subtype. The procedure:
A compound is defined to be an antagonist of the alpha-2C receptor if the compounds's efficacy at the α2C receptor is <30% Emax (GTPγS assay) and the binding inhibition of at the α2C receptor (Ki) is <500 nM, preferably <200 nM, and most preferably <20 nM.
Efficacy agonist activity values (Emax, GTPγS assay) for α2A and α2C were determined by following the general procedure detailed by Umland et. al (“Receptor reserve analysis of the human α2c-adrenoceptor using [^35S]GTPγS and cAMP functional assays” European Journal of Pharmacology 2001, 411, 211-221). For the purposes of the present invention, a compound is defined to be a specific or at least functionally selective agonist of the α2C receptor subtype if the compound's efficacy at the α2C receptor is ≧30% Emax (GTPγS assay) and its efficacy at the α2A receptor is 35% Emax (GTPγS assay). Additionally, for the purposes of this invention, a compound is defined to be an antagonist of the α2C receptor subtype if the compound's efficacy at the α2C receptor is <30% Emax (GTPγS assay) and the Ki at the α2C receptor subtype was <500 nM, preferentially <200 nM, and most preferentially <20 nM.
One may read the Ki as the dissociation constant of the complex between target and ligand, obtained from inhibition or displacement. On to `N#Cc1ccc(-c2cccc3c2CC2(CC3)COC(N)=N2)cc1` (racemic) [(±)-6K], for which the inhibition constant (Ki) was under 0.2 µM. Next, `NC1=N[C@@]2(CCc3c(cccc3-c3cccnc3)C2)CO1` [Compound 21K]: under 0.2 µM; `NC1=N[C@@]2(CCc3ccc(-c4cncnc4)cc3C2)CO1` [Compound 142]: under 0.2 µM.

Turning to `NC1=N[C@]2(CCc3cccc(-c4cncnc4)c3C2)CO1` [Compound 149], the Ki is under 0.2 µM. Next, `Cc1noc(C)c1-c1cccc2c1CC1(COC(N)=N1)C2` (racemic) [(±)-50M]: under 0.2 µM; `Cc1ccncc1-c1cccc2c1C[C@]1(CC2)COC(N)=N1` [Compound 150]: under 0.2 µM; `CC1=N[C@@]2(CCc3c(cccc3-c3cncnc3)C2)CN1` [Compound 213]: under 0.2 µM. Take `Cc1noc(C)c1-c1ccc2c(c1)CC1(COC(N)=N1)C2` (racemic) [(±)-8S]: the Ki is under 0.2 µM. Next, `NC1=N[C@@]2(CCc3cccc(-c4ccccc4)c3C2)CO1` [Compound 143]: under 0.2 µM. Next, `NC1=NC2(CO1)Cc1cccc(-c3cn[nH]c3)c1C2` (racemic) [(±)-50K]: under 0.2 µM; `NC1=N[C@@]2(CCc3cccc(-c4cccnc4)c3C2)CO1` [Compound 145]: under 0.2 µM.

As for `NC1=NC2(CO1)Cc1ccc(-c3cncnc3)cc1C2` (racemic) [(±)-8], the Ki was under 0.2 µM. As for `Cn1nccc1-c1ccc2c(c1)CC1(COC(N)=N1)C2` (racemic) [(±)-8R], the Ki is under 0.2 µM.

`Cn1nccc1-c1cccc2c1CC1(CC2)COC(N)=N1` (racemic) [(±)-6L]: the Ki is under 0.2 µM. `CC1CC2(COC(N)=N2)Cc2cccc(-c3cncnc3)c21` (racemic) [(±)-58]: the Ki was under 0.2 µM. Next, `COc1ccc(-c2cncnc2)c2c1CCC1(COC(N)=N1)C2` (racemic) [(±)-16]: under 0.2 µM; `N#Cc1cccc(-c2cccc3c2CC2(CC3)COC(N)=N2)c1` (racemic) [(±)-6J]: under 0.2 µM. Next, `NC1=NC2(CCO1)CCc1c(cccc1-c1cncnc1)C2` (racemic) [(±)-57]: under 0.2 µM; `COc1cncc(-c2cccc3c2CC2(CC3)COC(N)=N2)c1` (racemic) [(±)-112]: under 0.2 µM; `NC1=NC2(CCc3c(cccc3-c3cncs3)C2)CO1` (racemic) [(±)-129]: under 0.2 µM.

Regarding `NC1=N[C@]2(CCc3cc(Br)ccc3C2)CO1` (racemic) [(±)-340], the inhibition constant (Ki) is under 0.2 µM. Next, `Cc1n[nH]c(C)c1-c1cccc2c1CC1(COC(N)=N1)C2` (racemic) [(±)-50L]: under 0.2 µM; `CN(C)c1ncc(-c2cccc3c2CC2(CC3)COC(N)=N2)cn1` (racemic) [(±)-3]: under 0.2 µM. Next, `Cc1ncnc(C)c1-c1ccc2c(c1)CC1(CC2)COC(N)=N1` (racemic) [(±)-10B]: under 0.2 µM. Take `NC1=NC2(CO1)Cc1ccc(-c3ccccc3)cc1C2` (racemic) [(±)-8E]: the inhibition constant (Ki) is under 0.2 µM.

Regarding `Cc1n[nH]c(C)c1-c1ccc2c(c1)CC1(CC2)COC(N)=N1` (racemic) [(±)-101], the Ki is under 0.2 µM. Consider `NC1=N[C@@]2(CCc3c(cccc3-c3ccoc3)C2)CO1` [Compound 21I], for which the inhibitory constant (Ki) is under 0.2 µM. Next, `COc1ncc(-c2cccc3c2CCC2(COC(N)=N2)C3)cn1` (racemic) [(±)-133]: under 0.2 µM; `Cn1nccc1-c1cccc2c1CC[C@]1(COC(N)=N1)C2` [Compound 21J]: under 0.2 µM; `Cc1n[nH]c(C)c1-c1cccc2c1CC1(CC2)COC(N)=N1` (racemic) [(±)-114]: under 0.2 µM.

As for `NC1=N[C@]2(CCc3c(cccc3-c3cncs3)C2)CO1` [Compound 119], the Ki was under 0.2 µM. In the case of `Cc1noc(C)c1-c1cccc2c1CC1(CC2)COC(N)=N1` (racemic) [(±)-113], the inhibitory constant (Ki) is under 0.2 µM. Next, `NC1=NC2(CCc3ccc(-c4cccnn4)cc3C2)CO1` (racemic) [(±)-11]: under 0.2 µM. In the case of `NC1=N[C@@]2(CCc3c(cccc3-c3ccco3)C2)CN1` [Compound 238], the inhibitory constant (Ki) was under 0.2 µM.

For the compound `Cc1ccncc1-c1cccc2c1C[C@@]1(CC2)COC(N)=N1` [Compound 151], the inhibitory constant (Ki) was under 0.2 µM.

In the case of `NC1=NC2(CCc3cccc(-c4ccccc4)c3C2)CO1` (racemic) [(±)-1G], the Ki is under 0.2 µM. Consider `NC1=NC2(CO1)Cc1ccc(-c3cccnc3)cc1C2` (racemic) [(±)-8I], for which the inhibition constant (Ki) was under 0.2 µM.

(Values after patent US8476274B2, “Biaryl spiroaminooxazoline analogues as Alpha2C adrenergic receptor modulators” (Merck Sharp & Dohme Corp., priority 2008, dated 2013).)
